Laboratory results: patent US20250099407A1, “2-AMINO BENZOPHENONE DERIVATIVES FOR TARGETED FERROPTOSIS INDUCTION IN CANCER THERAPY” (INDIAN INSTITUTE OF TECHNOLOGY KANPUR, priority 2023, published 2025)
Read-outs that look alike come from different tables or passages of the source.

What was measured:
Assay type in all cases: cell-based
[1] = system: cancer cells; test: Antiproliferative potency against cancer cells / panel of cancer cell lines
Protocol: (§1) The viability of screened cancer cells was recorded using a luminescence-based CellTiter-Glo® assay for the ATP quantification. The screening concentration of the molecule ranged from 100/10 μM to 45/4.5 nM with an 8-point-3-fold dilution series in DMEM media (>0.1% DMSO as control). Each experiment was conducted in more than two biological replicates with three technical replicates. The error bar is a representation of standard deviation among the technical replicates.
as §1, with “IITK3002” for “the molecule”, “10” for “100/10”, “4.5” for “45/4.5”
(§2) a. […] In parallel, we have also synthesized the bromoacetamide (IITK3002) version of the lead molecules which is slightly more reactive with thiol nucleophiles when compared to chlorooacetamide warheads as depicted in FIG. 13. […] In addition, we also evaluated the molecules' antiproliferative potency against a panel of twelve different cancer phenotypes. The set of cancer cell lines included liver, breast, colon, myeloma, bone, blood, skin, brain and prostate lineages (FIG. 2, 3, Table 1).

[2] = system: Jurkat J6; test: Cell viability, CellTiter-Glo assay, Jurkat J6; conditions: Homo sapiens
Protocol: as §1
as §1, with “IITK3002” for “the molecule”, “10” for “100/10”, “4.5” for “45/4.5”
as §2, with “The set of cancer cell lines included liver, breast, colon, myeloma, bone, blood, skin, brain and prostate lineages (FIG. 2, 3, Table 1).” left out

[3] = system: U87MG; test: Cell viability, CellTiter-Glo assay, U87MG; conditions: Homo sapiens, U-87 MG
Protocol: as §1
as §1, with “IITK3002” for “the molecule”, “10” for “100/10”, “4.5” for “45/4.5”
as §2, with “The set of cancer cell lines included liver, breast, colon, myeloma, bone, blood, skin, brain and prostate lineages (FIG. 2, 3, Table 1).” left out

[4] = system: HCT116; test: Cell viability, CellTiter-Glo assay, HCT116; conditions: Homo sapiens, HCT-116
Protocol: as §1
as §1, with “IITK3002” for “the molecule”, “10” for “100/10”, “4.5” for “45/4.5”
as §2, with “The set of cancer cell lines included liver, breast, colon, myeloma, bone, blood, skin, brain and prostate lineages (FIG. 2, 3, Table 1).” left out

[5] = system: 22Rv1; test: Cell viability, CellTiter-Glo assay, 22Rv1
Protocol: as §1
as §1, with “IITK3002” for “the molecule”, “10” for “100/10”, “4.5” for “45/4.5”
as §2

[6] = system: RPMI 8226; test: Cell viability, CellTiter-Glo assay, RPMI 8226; conditions: Homo sapiens; RPMI 8226, cell viability
Protocol: as §1
as §1, with “IITK3002” for “the molecule”, “10” for “100/10”, “4.5” for “45/4.5”
as §2, with “The set of cancer cell lines included liver, breast, colon, myeloma, bone, blood, skin, brain and prostate lineages (FIG. 2, 3, Table 1).” left out

[7] = system: MCF7; test: Cell viability, CellTiter-Glo assay, MCF7; conditions: Homo sapiens
Protocol: as §1
as §1, with “IITK3002” for “the molecule”, “10” for “100/10”, “4.5” for “45/4.5”
as §2, with “The set of cancer cell lines included liver, breast, colon, myeloma, bone, blood, skin, brain and prostate lineages (FIG. 2, 3, Table 1).” left out

[8] = system: Huh-7 cells; test: Combination cell viability experiments with thiols, ferroptosis modulators and cell death inhibitors in Huh-7 cells; conditions: for reduction in potency by N-acetylcysteine (NAC) and GSH: 500 μM NAC or glutathione in combination; for effect of erastin addition on antiproliferative activity: Erastin 0.5 μM, relatively non-toxic concentration; for effect of apoptosis (QVD-OPh) and necrosis (Necrostatin-1) inhibitors on antiproliferative activity: QVD-OPh and Necrostatin-1 10 μM; for cell death mechanism from combination experiments: combination with GSH, NAC, BSO, Fer-1, deferoxamine, RSL3, FIN56, Erastin, QVD-OPh, necrostatin-1, Huh-7 and 4T1
Protocol: FIG. 14 depicts a combination experiment indicates the involvement of thiol modulation by IITK3001/IITK3002 on the viability of Huh-7 and 4T1 cells, in accordance with an embodiment of the present invention. The viability of screened cancer cells was recorded using a luminescence-based CellTiter-Glo® assay for the ATP quantification. The screening concentration of (a) IITK3001 and (b) IITK3002 ranged from 10 uM to 4.5 nM with an 8-point-3-fold dilution series in DMEM medium (>0.1% DMSO as control). For combination experiments, 500 μM of NAC or glutathione and 25 μM of BSO were used. Each experiment was conducted in more than two biological replicates with three technical replicates. The error bar is a representation of standard deviation among the technical replicates.
(§3) FIG. 16 depicts ferroptosis induction as a cell death mechanism is established for IITK3001 using combination experiments with ferroptosis inducers and inhibitors, in accordance with an embodiment of the present invention. The screening concentration of (a) IITK3001 and (b) IITK3002 ranged from 10 μM to 4.5 nM with an 8-point-3-fold dilution series in DMEM medium (>0.1% DMSO as control). For combination experiments, Ferrostain-1 (10 μM),Deferoxamine (3 μM), RSL3 (10 nM), FIN56 (30 nM), glutamine (0.5 mM), glutamic acid (0.5 mM), Erastin (0.5 μM) were used. Each experiment was conducted in more than two biological replicates with three technical replicates. The error bar is a representation of standard deviation among the technical replicates.
as §3, with “18” for “16”, “IITK3002” for “IITK3001”, “of” for “of (a) IITK3001 and (b)”, “μM), Deferoxamine” for “μM),Deferoxamine”
FIG. 20 depicts combining apoptosis and necroptosis inhibitors ruled out the possibility of respective cell death mechanisms upon treatment with IITK3001 or IITK3002 in Huh-7 and 4T1 cells, in accordance with an embodiment of the present invention. The screening concentration of IITK3001/IITK3002 ranged from 10 μM to 4.5 nM with an 8-point-3-fold dilution series in DMEM medium (>0.1% DMSO as control). For combination experiments, QVD-OPh and Necrsotatin-1 (10 μM) were used. Each experiment was conducted in more than two biological replicates with three technical replicates. The error bar is a representation of standard deviation among the technical replicates.
FIG. 22 depicts ferroptosis induction was established for IITK3003 using combination experiments in Huh-7 cells, in accordance with an embodiment of the present invention. The screening concentration of IITK3002 ranged from 10 uM to 4.5 nM with an 8-point-3-fold dilution series in DMEM medium (>0.1% DMSO as control). For combination experiments, Ferrostain-1 ([…]), Deferoxamine (3 μM), RSL3 (10 nM), FIN56 (30 nM), glutamine (0.5 mM), glutamic acid (0.5 mM), Erastin (0.5 μM) were used. Each experiment was conducted in more than two biological replicates with three technical replicates. The error bar is a representation of standard deviation among the technical replicates.
FIG. 24 depicts ferroptosis induction was established for IITK3004 using combination experiments in Huh-7 cells, in accordance with an embodiment of the present invention. The screening concentration of the molecules (a) IITK3001 and (b) IITK3002 ranged from 10 μM to 4.5 nM with a 8-point-3-fold dilution series. […]

[9] = cell line not stated, read-out: EC50, inhibition of cancer cell proliferation
[10] = range over twelve different cancer phenotypes, read-out: EC50 concentration range across panel of twelve cancer cell lines
[11] = Homo sapiens, 22Rv1, 22Rv1, cell viability

SMILES | EC50 [1, 9] [nM] | EC50 [1, 10] [nM] | EC50 [2] [nM] | EC50 [3] [nM] | EC50 [4] [nM] | EC50 ([5]; 22Rv1, cell viability) [nM] | EC50 [5, 11] [nM] | EC50 [6] [nM] | EC50 [7] [nM] | reduction in potency by N-acetylcysteine (NAC) and GSH [8] [fold] | effect of erastin addition on antiproliferative activity [8] | effect of apoptosis (QVD-OPh) and necrosis (Necrostatin-1) inhibitors on antiproliferative activity [8] | cell death mechanism from combination experiments [8]
CN(C(=O)CCl)c1ccccc1C(=O)c1ccccc1 [IITK3001, N-(2-benzoylphenyl)-2-chloro-N-methylacetamide] | 70 | 132 to 490 | 222 | 402 | 168 | 150 | 148 | 133 | 312 | > 1000 | no effect | no apparent deviation | ferroptosis
CN(C(=O)CBr)c1ccccc1C(=O)c1ccccc1 [IITK3002, N-(2-benzoylphenyl)-2-bromo-N-methylacetamide] | 3 | 20 to 132 | 37 | 80 | 37 | – | 40 | 39 | 20 | > 500 | no effect | no apparent deviation | ferroptosis
C#CCN(C(=O)CCl)c1ccccc1C(=O)c1ccccc1 [IITK3003, N-(2-benzoylphenyl)-2-chloro-N-(prop-2-yn-1-yl)acetamide] | – | – | – | – | – | – | 420 | – | – | – | – | – | exceptionally selective ferroptosis inducers
